Literature values, collected in patent US20230393151A1, “Precision Targeted Retromer Therapeutics for the Treatment of Neurodegenerative Diseases and Disorders” (The Trustees of Columbia University in the City of New York, priority 2020, published 2023).

How the values were obtained:
[1] = biological target: purified, reconstituted heterotrimeric complex (retromer) (Homo sapiens, UniProt Q96QK1+Q9UBQ0); conditions: incubated with complex at various concentrations; Mecozzi et al. 2014
VPS35 and VPS26 = biological target: T1, VPS35 and VPS26 (Mus musculus, UniProt Q9EQH3+Q9QZ88); conditions: cultured primary neurons; Mecozzi et al. 2014
T1 construct: endogenous in cells

Thermal stability of retromer complex [1]: improved thermal stability significantly
VPS35 and VPS26 protein levels (VPS35 and VPS26): increased
Structure (SMILES): [H]/N=C(\N)SCc1ccc(CS/C(N)=N/[H])s1 [R55]
